Active and inactive are the calls of the source. The calls are words filed in the database; no cut-off is given here.
Tests used:
[1] = molecular target: RAF proto-oncogene serine/threonine-protein kinase (Homo sapiens, UniProt P04049); assay: Inhibition of RAF1 (unknown origin) at 1 uM by Ambit Kinomescan binding assay relative to control
[2] = molecular target: Interferon-induced, double-stranded RNA-activated protein kinase (Homo sapiens) (UniProt P19525); assay: Inhibition of PRKR (unknown origin) at 10 uM by Ambit Kinomescan binding assay
[3] = molecular target: T1, Mitogen-activated protein kinase kinase kinase 5 (Homo sapiens) (UniProt Q99683); assay: Inhibition of MAP3K5 Lys1 labeling site harbouring IAIKEIPER in human A-375 cells at 0.05 uM by KiNativ Profiling analysis relative to control; assay type: cell-based
T1 sequence (whole entry): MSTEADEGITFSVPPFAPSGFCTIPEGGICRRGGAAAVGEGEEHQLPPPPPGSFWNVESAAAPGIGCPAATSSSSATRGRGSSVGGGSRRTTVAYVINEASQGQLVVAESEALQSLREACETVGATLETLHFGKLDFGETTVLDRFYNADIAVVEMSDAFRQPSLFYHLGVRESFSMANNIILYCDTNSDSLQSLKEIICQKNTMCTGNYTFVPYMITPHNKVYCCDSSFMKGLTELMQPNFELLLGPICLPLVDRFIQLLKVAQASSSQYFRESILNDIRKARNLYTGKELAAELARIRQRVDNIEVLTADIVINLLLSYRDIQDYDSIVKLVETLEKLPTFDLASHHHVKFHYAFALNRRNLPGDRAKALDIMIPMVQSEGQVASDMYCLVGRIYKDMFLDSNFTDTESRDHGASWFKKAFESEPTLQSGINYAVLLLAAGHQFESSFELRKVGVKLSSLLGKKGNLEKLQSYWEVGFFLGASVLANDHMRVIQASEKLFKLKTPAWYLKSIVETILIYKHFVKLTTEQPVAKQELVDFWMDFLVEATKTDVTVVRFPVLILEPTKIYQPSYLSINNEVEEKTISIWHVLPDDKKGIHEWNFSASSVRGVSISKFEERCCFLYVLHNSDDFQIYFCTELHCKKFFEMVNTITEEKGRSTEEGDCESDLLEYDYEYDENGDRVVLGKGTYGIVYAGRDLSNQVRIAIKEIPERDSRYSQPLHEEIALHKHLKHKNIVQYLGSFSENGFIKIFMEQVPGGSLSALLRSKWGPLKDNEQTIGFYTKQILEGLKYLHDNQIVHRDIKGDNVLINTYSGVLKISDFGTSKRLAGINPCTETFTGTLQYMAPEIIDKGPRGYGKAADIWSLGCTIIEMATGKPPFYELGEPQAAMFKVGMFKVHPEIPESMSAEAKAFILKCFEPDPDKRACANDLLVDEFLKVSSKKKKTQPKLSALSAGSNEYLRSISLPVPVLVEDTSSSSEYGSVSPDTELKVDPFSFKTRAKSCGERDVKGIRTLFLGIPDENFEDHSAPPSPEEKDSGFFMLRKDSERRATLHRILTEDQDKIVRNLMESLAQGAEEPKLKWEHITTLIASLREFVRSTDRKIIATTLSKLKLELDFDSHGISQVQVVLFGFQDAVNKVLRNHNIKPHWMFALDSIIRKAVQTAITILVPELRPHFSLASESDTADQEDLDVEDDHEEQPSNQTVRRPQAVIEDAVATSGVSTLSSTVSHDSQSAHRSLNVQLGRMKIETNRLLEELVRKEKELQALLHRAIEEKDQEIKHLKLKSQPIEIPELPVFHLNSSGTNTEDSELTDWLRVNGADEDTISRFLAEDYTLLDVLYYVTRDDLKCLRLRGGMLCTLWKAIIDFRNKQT

[4] = molecular target: Calcium/calmodulin-dependent protein kinase type II subunit alpha (Homo sapiens) (UniProt Q9UQM7); assay: Inhibition of CAMK2a K2 labeling site in human Huh-7 cells at 10 uM by KiNativ Profiling analysis relative to control; assay type: cell-based
[5] = Inhibition of KHS1 K2 labeling site in human Huh-7 cells at 10 uM by KiNativ Profiling analysis relative to control; conditions: condition cancer
[6] = molecular target: PKC alpha and beta-2 (Homo sapiens) (UniProt P17252+P05771); assay: Inhibition of PKCalpha/beta K2 labeling site in human Huh-7 cells at 10 uM by KiNativ Profiling analysis relative to control; assay type: cell-based
[7] = molecular target: Serine/threonine-protein kinase 25 (Homo sapiens) (UniProt O00506); assay: Inhibition of YSK1 ATP labeling site in human Huh-7 cells at 1 uM by KiNativ Profiling analysis relative to control; assay type: cell-based
[8] = molecular target: Serine/threonine-protein kinase 38 (Homo sapiens) (UniProt Q15208); assay: Inhibition of NDR1 K1 labeling site in human Huh-7 cells at 1 uM by KiNativ Profiling analysis relative to control; assay type: cell-based
[9] = molecular target: Cyclin-dependent kinase 1 (Homo sapiens) (UniProt P06493); assay: Inhibition of CDC2 Lys1 labeling site in human Huh-7 cells at 1 uM by KiNativ Profiling analysis relative to control; assay type: cell-based
Sequence of Cyclin-dependent kinase 1 (Homo sapiens) (P06493 whole entry, looked up): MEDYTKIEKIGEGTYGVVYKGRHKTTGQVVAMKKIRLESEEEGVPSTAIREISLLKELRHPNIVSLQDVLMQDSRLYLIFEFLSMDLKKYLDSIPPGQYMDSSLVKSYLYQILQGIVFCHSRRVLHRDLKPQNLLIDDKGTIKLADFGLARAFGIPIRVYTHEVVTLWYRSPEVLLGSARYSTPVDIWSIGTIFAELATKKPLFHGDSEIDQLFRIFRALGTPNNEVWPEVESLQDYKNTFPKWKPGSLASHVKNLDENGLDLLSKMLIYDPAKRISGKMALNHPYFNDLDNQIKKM

Sequence of Interferon-induced, double-stranded RNA-activated protein kinase (Homo sapiens) (P19525 whole entry): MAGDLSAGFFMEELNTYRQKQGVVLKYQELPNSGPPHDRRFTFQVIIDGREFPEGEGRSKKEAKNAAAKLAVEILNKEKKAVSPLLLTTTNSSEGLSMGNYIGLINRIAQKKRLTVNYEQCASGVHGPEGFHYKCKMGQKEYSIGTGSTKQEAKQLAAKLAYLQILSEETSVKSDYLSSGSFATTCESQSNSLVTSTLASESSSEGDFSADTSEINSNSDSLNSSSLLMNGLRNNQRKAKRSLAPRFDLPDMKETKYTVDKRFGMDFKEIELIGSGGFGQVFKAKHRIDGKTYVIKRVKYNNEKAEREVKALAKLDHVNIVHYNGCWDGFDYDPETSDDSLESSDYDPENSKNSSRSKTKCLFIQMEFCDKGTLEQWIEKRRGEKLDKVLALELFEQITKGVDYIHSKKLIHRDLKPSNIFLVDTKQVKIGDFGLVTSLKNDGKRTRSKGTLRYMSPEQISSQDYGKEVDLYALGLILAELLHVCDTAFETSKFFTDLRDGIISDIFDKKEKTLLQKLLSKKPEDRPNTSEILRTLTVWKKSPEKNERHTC
Sequence of RAF proto-oncogene serine/threonine-protein kinase (P04049 whole entry): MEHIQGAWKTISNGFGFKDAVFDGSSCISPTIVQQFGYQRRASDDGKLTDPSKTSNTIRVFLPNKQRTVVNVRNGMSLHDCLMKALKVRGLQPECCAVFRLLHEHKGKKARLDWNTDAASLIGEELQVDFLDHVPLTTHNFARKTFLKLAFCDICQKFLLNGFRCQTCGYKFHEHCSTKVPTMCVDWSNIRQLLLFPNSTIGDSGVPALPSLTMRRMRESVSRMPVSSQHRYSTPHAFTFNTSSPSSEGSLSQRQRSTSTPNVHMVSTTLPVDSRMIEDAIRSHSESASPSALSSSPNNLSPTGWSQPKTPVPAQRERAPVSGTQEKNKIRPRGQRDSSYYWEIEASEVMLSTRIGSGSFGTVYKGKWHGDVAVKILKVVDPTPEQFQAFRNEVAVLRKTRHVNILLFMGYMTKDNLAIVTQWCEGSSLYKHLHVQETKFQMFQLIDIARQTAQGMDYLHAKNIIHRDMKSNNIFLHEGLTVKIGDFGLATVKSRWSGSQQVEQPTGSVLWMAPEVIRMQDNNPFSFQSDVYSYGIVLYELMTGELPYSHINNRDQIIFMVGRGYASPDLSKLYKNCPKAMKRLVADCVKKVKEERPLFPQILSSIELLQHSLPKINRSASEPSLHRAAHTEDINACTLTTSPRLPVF
Sequence of Calcium/calmodulin-dependent protein kinase type II subunit alpha (Homo sapiens) (Q9UQM7 whole entry): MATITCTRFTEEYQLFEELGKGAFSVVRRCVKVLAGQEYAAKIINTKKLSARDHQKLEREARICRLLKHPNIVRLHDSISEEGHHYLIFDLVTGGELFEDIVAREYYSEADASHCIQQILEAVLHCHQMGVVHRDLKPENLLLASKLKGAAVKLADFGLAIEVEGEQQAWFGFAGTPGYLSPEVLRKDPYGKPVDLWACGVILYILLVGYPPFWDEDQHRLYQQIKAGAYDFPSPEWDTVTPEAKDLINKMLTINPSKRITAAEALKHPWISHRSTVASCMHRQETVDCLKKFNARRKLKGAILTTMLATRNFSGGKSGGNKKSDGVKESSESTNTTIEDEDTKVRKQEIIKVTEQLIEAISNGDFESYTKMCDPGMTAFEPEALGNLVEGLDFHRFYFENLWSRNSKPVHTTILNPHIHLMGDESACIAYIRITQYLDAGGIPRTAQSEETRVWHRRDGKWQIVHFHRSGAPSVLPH
Sequence of PKC alpha and beta-2 (Homo sapiens) (P05771 whole entry, looked up): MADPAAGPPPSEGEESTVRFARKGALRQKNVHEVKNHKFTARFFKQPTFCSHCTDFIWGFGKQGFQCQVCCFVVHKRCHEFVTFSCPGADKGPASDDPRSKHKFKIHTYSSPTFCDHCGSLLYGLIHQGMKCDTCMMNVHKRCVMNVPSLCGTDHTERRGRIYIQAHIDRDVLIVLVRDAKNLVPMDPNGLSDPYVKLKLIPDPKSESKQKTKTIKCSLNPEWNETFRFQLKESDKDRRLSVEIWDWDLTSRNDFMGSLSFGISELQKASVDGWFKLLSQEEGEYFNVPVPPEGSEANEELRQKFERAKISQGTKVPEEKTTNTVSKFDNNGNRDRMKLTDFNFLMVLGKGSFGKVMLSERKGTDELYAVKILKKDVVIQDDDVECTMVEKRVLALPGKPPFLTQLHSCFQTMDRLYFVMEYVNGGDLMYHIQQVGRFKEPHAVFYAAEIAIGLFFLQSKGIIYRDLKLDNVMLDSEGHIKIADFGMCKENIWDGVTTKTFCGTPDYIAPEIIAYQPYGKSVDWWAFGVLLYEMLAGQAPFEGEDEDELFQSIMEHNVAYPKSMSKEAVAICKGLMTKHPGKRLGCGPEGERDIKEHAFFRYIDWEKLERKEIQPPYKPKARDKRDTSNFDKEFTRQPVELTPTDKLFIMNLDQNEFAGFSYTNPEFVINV
Sequence of Serine/threonine-protein kinase 38 (Homo sapiens) (Q15208 2-465 limits assumed): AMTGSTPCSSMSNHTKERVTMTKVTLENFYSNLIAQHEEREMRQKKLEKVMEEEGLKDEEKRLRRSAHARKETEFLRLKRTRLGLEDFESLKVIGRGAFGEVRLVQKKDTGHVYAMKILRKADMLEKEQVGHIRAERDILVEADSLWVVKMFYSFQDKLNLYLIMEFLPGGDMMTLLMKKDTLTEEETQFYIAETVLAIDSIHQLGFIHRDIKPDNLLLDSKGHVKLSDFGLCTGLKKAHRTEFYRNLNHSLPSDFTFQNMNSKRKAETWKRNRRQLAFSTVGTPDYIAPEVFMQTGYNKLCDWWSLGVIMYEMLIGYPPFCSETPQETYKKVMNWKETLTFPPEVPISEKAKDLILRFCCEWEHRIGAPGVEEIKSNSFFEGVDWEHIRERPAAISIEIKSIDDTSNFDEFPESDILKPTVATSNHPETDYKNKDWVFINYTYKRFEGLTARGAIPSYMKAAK
Sequence of Serine/threonine-protein kinase 25 (Homo sapiens) (O00506 whole entry, looked up): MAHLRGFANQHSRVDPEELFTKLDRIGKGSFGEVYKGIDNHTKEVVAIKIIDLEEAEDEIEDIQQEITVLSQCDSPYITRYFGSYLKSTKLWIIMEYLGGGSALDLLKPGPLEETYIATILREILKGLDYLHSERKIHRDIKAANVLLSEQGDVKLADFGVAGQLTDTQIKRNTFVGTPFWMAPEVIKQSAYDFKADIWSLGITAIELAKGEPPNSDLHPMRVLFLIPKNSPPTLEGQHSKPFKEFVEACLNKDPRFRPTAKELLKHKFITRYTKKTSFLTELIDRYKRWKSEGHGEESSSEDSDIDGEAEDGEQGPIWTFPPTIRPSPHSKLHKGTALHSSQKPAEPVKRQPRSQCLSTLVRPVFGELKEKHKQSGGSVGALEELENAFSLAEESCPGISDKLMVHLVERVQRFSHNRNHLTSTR

## CCN1CCN(Cc2ccc(NC(=O)c3ccc(C)c(/C=C/c4cnc5[nH]ccc5c4OC)c3)cc2C(F)(F)F)CC1
[1]
  inhibition: 7.8%

## CCN1CCN(Cc2ccc(NC(=O)c3ccc(C)c(Oc4ccnc5[nH]ccc45)c3)cc2C(F)(F)F)CC1
[2]
  inhibition: inactive
[3]
  inhibition: 10.8%
[4]
  inhibition: 6.2%
[5]
  inhibition at 10 µM: 0.3%
[6]
  inhibition: 1.3%
[7]
  inhibition: 18%
[8]
  inhibition: 4.4%

## CNc1cc(Oc2cc(C(=O)Nc3cc(N4CCN(C)CC4)cc(C(F)(F)F)c3)ccc2C)ncn1
[9]
  inhibition: 8.9%

From ChEMBL document CHEMBL5696442, “Discovery of type II inhibitors of TGFβ-activated kinase 1 (TAK1) and mitogen-activated protein kinase kinase kinase kinase 2 (MAP4K2)” (J Med Chem, 2015)
